# Literature values in article PMC6832551, “An Antiviral Peptide from Alopecosa nagpag Spider Targets NS2B–NS3 Protease of Flaviviruses” (Toxins, 2019).
# Where a name gives a salt, the structure may show the parent alone.
# Test system: ZIKV
# From the text: Despite their differences in pathogeneses, DENV and ZIKV are representative, emerging mosquito-borne flaviviruses with similar replication cycles which infect millions of people annually. The non-structural proteins of flaviviruses are important for virus replication and assembly. It has been established that NS2B–NS3 forms the viral protease and NS3 alone serves as the dsRNA helicase. Recently, the NS2B–NS3 protease became an attractive antiviral target, and many of its inhibitors have been reported as potential antivirals. Protease inhibitors are ubiquito ...
structure (smiles),measurement,value
"CC(C)C[C@H]1C(=O)N2CCC[C@H]2[C@]2(O)O[C@](NC(=O)[C@@H]3C=C4c5cccc6[nH]c(Br)c(c56)C[C@H]4N(C)C3)(C(C)C)C(=O)N12 [bromocriptine, Bromocriptine mesylate]",ZIKV viral replication (in words),confirmed to inhibit ZIKV protease activity and viral replication
